Test results reported in patent publication US5045566A, “Novel imidate insecticides” (ICI Americas Inc., priority 1989, dated 1991).

Experiments:
Type in all cases: in vivo
[1] = test system: Cabbage Looper [Trichoplusia ni (Hubner)]; assay: Cabbage looper leaf dip (CL), 3-5 days; conditions: percent in solution, second-instar larvae
Procedure, shortened: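 LC50, as percent test compound in solution, derived from dosage-mortality curves; concentrations started at 0.1% and went lower. Five second-instar larvae per dish fed on acetone-water-dipped, dried squash cotyledons in a humid chamber. Deaths recorded 3-5 days post-infestation.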

[2] = test system: Housefly [Musca domestica]; assay: Housefly contact mortality in dishes (HF), 48 hours; conditions: μg of test compound per 25 female flies
Procedure, shortened: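 Dose range started at 100 μg per 25 female flies and went downward. Insects (1-2 days old) contacted a dried acetone/peanut-oil deposit in dishes; LC50 values come from dosage-mortality curves at 48 h.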

[3] = test system: Aster Leafhopper [Macrosteles fascifrens (Stal)]; assay: Aster leafhopper on dipped oat seedlings (LH), 48 hours; conditions: percent in solution, adults/nymphs
Procedure, shortened: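 Three ~10 cm oat seedlings per cup were dipped 2-3 seconds in 50-50 acetone-water compound solutions, dried, and caged with ten adult/nymph leafhoppers. Mortality was counted after 48 hours at concentrations from 0.05% downward. LC50, as percent compound in solution, came from dosage-mortality curves.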

[4] = test system: Black Bean Aphid [Aphis fabae (Scop.)]; assay: Black bean aphid spray test on nasturtium (BBA), 48 hours; conditions: percent of test compound in sprayed solution
Procedure, shortened: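 LC50, given as percent test compound in the sprayed liquid, was calculated from dosage-mortality curves using concentrations from 0.05% downward. Sprays in 50:50 acetone-water went to runoff on ~5 cm nasturtiums carrying 25-50 aphids of mixed ages, one day after infestation. Deaths were counted 48 h later under greenhouse conditions.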

[5] = test system: Maize weevil [Sitophilus zeamais (Motschulsky)]; assay: Maize weevil on dipped corn seeds (MW), 48 hours; conditions: percent in solution, adult weevils
Procedure, shortened: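 LC50, given as percent of compound in dipping solution, comes from dosage-mortality curves over concentrations descending from 0.01%. Four corn seeds soaked 2-3 s in 50:50 acetone:water solution were dried and held with 10 adult weevils, about 25° C, mortality read after 48 h.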

[6] = test system: Tobacco Budworm [Heliothis virescens (Fabricius)] eggs; assay: Tobacco budworm eggs (TBW-E); conditions: percent in solution; 2-day old eggs
Procedure, shortened: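 LC50 is given as percent compound in the dipping solution, fitted from dosage-mortality curves. Two-day-old eggs on paper towel were dipped in acetone solutions (top concentration 0.1%), kept at 78° F on rearing medium, and scored after control hatch and larval feeding.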

Row | SMILES | LC50 CL [1] | LC50 HF [2] | LC50 LH [3] | LC50 BBA [4] | LC50 MW [5] | LC50 TBW E (eggs) [6]
1 | Cc1ccc(N=C(OCc2cccc(Oc3ccccc3)c2)C(C)C)cc1 [Compound 156] | 0.004% | 10 µg | > 0.05% | 0.001% | > 0.01% | 0.05%
2 | CC(C)C(=Nc1cc(Cl)ccc1Cl)OCc1cccc(Oc2ccccc2)c1 [Compound 13] | 0.014% | > 100 µg | > 0.05% | 0.003% | > 0.01% | > 0.1%
3 | CC(C)C(=Nc1ccc(F)c([N+](=O)[O-])c1)OCc1cccc(Oc2ccccc2)c1 [Compound 293] | 0.0045% | 19 µg | > 0.05% | > 0.05% | > 0.01% | > 0.1%
4 | CC(C)C(=Nc1ccc(Cl)c(Cl)c1)OCc1cccc(Nc2ccc(F)cc2)c1 [Compound 514] | 0.008% | > 100 µg | > 0.05% | 0.003% | > 0.01% | > 0.1%
5 | CCc1ccc(N=C(OCc2ccc(F)c(Oc3ccccc3)c2)C(C)C)cc1 [Compound 360] | 0.006% | < 100 µg | < 0.05% | 0.0006% | > 0.01% | > 0.1%
6 | CC(C)C(=Nc1ccc2c(c1)OCO2)OCc1cccc(Oc2ccc(Cl)cn2)c1 [Compound 532] | < 0.1% | > 100 µg | > 0.05% | > 0.05% | > 0.01% | > 0.1%
7 | C=C(C)C(=Nc1ccc(Cl)cc1)OCc1cccc(Oc2ccccc2)c1 [Compound 6] | 0.02% | 17 µg | > 0.05% | 0.001% | > 0.01% | 0.015%
8 | c1ccc(Oc2cccc(COC(=Nc3ccc4c(c3)OCO4)C3CC3)c2)cc1 [Compound 177] | 0.002% | 13 µg | > 0.05% | 0.01% | 0.01% | > 0.1%
9 | CC(C)(C)C(=Nc1ccc(F)c(F)c1)OCc1coc(Cc2ccccc2)c1 [Compound 525] | < 0.1% | > 100 µg | > 0.05% | > 0.05% | > 0.01% | > 0.1%
10 | CSc1cccc(N=C(OCc2ccc(F)c(Oc3ccccc3)c2)C(C)C)c1 [Compound 362] | > 0.1% | < 100 µg | > 0.05% | 0.005% | > 0.01% | > 0.1%
11 | CC(C)C(=Nc1ccc([N+](=O)[O-])cc1)OCc1coc(Cc2ccccc2)c1 [Compound 539] | > 0.1% | 22 µg | > 0.05% | > 0.05% | > 0.01% | > 0.1%
12 | CC(C)C(=Nc1ccc(C(F)(F)F)cc1)OCc1cccc(Oc2ccc(Cl)cc2)c1 [Compound 365] | 0.00025% | > 100 µg | < 0.05% | 0.003% | > 0.01% | 0.038%
13 | CC(C)C(=Nc1ccccc1C(F)(F)F)OCc1cccc(Oc2ccccc2)c1 [Compound 72] | 0.08% | > 100 µg | > 0.05% | > 0.05% | > 0.01% | > 0.1%
14 | CC(C)C(=Nc1ccc2c(c1)OCO2)OCc1ccc(F)c(Oc2ccc(Cl)cc2)c1 [Compound 366] | 0.0007% | < 100 µg | 0.05% | 0.0006% | > 0.01% | 0.012%
15 | CC(C)C(=Nc1ccc(C(C)(C)C)cc1)OCc1cccc(Oc2ccccc2)c1 [Compound 153] | 0.004% | > 100 µg | 0.0005% | 0.003% | > 0.01% | 0.1%
16 | Cc1ccc(N=C(OCc2ccc(F)c(Oc3ccc(F)cc3)c2)C(C)C)cc1Cl [Compound 357] | > 0.1% | < 100 µg | < 0.05% | 0.0003% | 0.01% | > 0.1%
17 | CC(C)C(=Nc1ccc(F)c(Cl)c1)OCc1cccc(Oc2ccc(Br)cc2)n1 [Compound 492] | 0.00028% | 15 µg | > 0.05% | > 0.05% | > 0.01% | 0.015%
18 | CC(C)C(=Nc1cccc(Br)c1)OCc1cccc(Oc2ccccc2)c1 [Compound 128] | 0.005% | 4.5 µg | 0.003% | 0.001% | > 0.01% | 0.037%
19 | CC(C)C(=Nc1ccc2c(c1)OCO2)OCc1cccc(Oc2ccc(C(C)(C)C)cc2)c1 [Compound 367] | < 0.1% | > 100 µg | > 0.05% | > 0.05% | > 0.01% | > 0.1%
20 | C#CC(OC(=Nc1cccc(C(F)(F)F)c1)C(C)C)c1cccc(Oc2ccccc2)c1 (stereo not drawn) [Compound 519] | 0.0037% | 60 µg | > 0.05% | > 0.05% | > 0.01% | > 0.1%
21 | CC(C)C(=Nc1ccc2c(c1)OCO2)OCc1ccnc(Oc2ccccc2)c1 [Compound 540] | < 0.1% | > 100 µg | > 0.05% | > 0.05% | > 0.01% | > 0.1%
22 | CCc1ccc(N=C(OCc2ccc(F)c(Oc3ccc(F)cc3)c2)C(C)C)cc1 [Compound 361] | 0.001% | < 100 µg | < 0.05% | 0.0003% | > 0.01% | 0.04%
23 | CC(C)C(=Nc1ccc(F)c(Cl)c1)OCc1cccc(Oc2ccc(F)c(F)c2)c1 [Compound 217] | 0.00006% | 8 µg | > 0.05% | 0.001% | 0.0084% | 0.015%
